Earlier results in patent publication US4174406A, “Terpenylaminoalkanol fish toxicants” (priority 1977, dated 1979).
Read-outs that look alike come from different tables or passages of the source.

Test system: Carp
Settings: registered fish toxicants, cited from earlier work

Question: Which “effect of water pH on activity” value does the source give for `C=C(C)[C@H]1Cc2c(ccc3c2O[C@@H]2COc4cc(OC)c(OC)cc4[C@@H]2C3=O)O1` [Rotenone] here?
Answer: adversely affected by waters of high pH

Question: What about the selectivity for carp of the same molecule?
Answer: non-selective for carp

Question: With antimycin as the molecule, how does the “effect of water pH on activity” value read?
Answer: adversely affected by pH

Question: And the selectivity for carp?
Answer: non-selective for carp

Question: What about the “effect of water pH on activity” value (listed as antimyein) of the same molecule?
Answer: adversely affected by waters of high pH
